Tests used:
Test in all cases: viability inhibition at highest dose (% inhibition); higher = more growth inhibition
[1] = system: BT-474 Tam2; details: 4-OH-tamoxifen in medium 1 µM; 72 h
Outline: (§1)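 Breast cancer cell lines and their resistant derivatives were seeded into 384-well plates holding FO2Baq library drugs at five concentrations spanning a 10 000-fold range. Resistant lines were in medium with 1 μM of the selecting drug. Cells were incubated 72 h at 37 °C, and CellTiter-Glo viability was read on a PHERAstar and normalised to vehicle-only and positive controls. Drug sensitivity score, relative IC50 (curve midpoint) and top-dose inhibition came from logistic dose–response fits (Breeze pipeline).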

[2] = system: T-47D Tam1; details: 4-OH-tamoxifen in medium 1 µM; 72 h
Outline: as §1

[3] = system: ZR-75-1; details: 72 h
Outline: as §1

[4] = system: ZR-75-1 Tam2; details: 4-OH-tamoxifen in medium 1 µM; 72 h
Outline: as §1

[5] = system: BT-474 Tam1; details: 4-OH-tamoxifen in medium 1 µM; 72 h
Outline: as §1

[6] = system: MCF-7; details: 72 h
Outline: as §1

[7] = system: MCF-7 Tam1; details: 4-OH-tamoxifen in medium 1 µM; 72 h
Outline: as §1

[8] = system: T-47D Tam2; details: 4-OH-tamoxifen in medium 1 µM; 72 h
Outline: as §1

[9] = system: ZR-75-1 Tam1; details: 4-OH-tamoxifen in medium 1 µM; 72 h
Outline: as §1

[10] = system: T-47D; details: 72 h
Outline: as §1

[11] = system: BT-474; details: 72 h
Outline: as §1

| Structure (SMILES) | viability inhibition at highest dose [1] | viability inhibition at highest dose [2] | viability inhibition at highest dose ([3]; 4-OH-tamoxifen in medium 0 µM) | viability inhibition at highest dose ([3]; 4-OH-tamoxifen in medium 1 µM) | viability inhibition at highest dose [4] | viability inhibition at highest dose [5] | viability inhibition at highest dose ([6]; 4-OH-tamoxifen in medium 0 µM) | viability inhibition at highest dose ([6]; 4-OH-tamoxifen in medium 1 µM) | viability inhibition at highest dose [7] | viability inhibition at highest dose [8] | viability inhibition at highest dose [9] | viability inhibition at highest dose ([10]; 4-OH-tamoxifen in medium 0 µM) | viability inhibition at highest dose ([10]; 4-OH-tamoxifen in medium 1 µM) | viability inhibition at highest dose ([11]; 4-OH-tamoxifen in medium 0 µM) | viability inhibition at highest dose ([11]; 4-OH-tamoxifen in medium 1 µM) |
| --- | --- | --- | --- | --- | --- | --- | --- | --- | --- | --- | --- | --- | --- | --- | --- |
| COc1cc2c(N3CCN(C(=O)Nc4ccc(OC(C)C)cc4)CC3)ncnc2cc1OCCCN1CCCCC1 [Tandutinib] (drug 1000 nM) | -13.2 | -4.68 | -10 | -3.58 | -7.47 | -0.467 | -5.26 | -13.7 | -14.2 | 5.77 | 1.06 | -12.3 | -11.9 | -11.4 | -9.77 |
| C=CCNC1=C2C[C@@H](C)C[C@H](OC)[C@H](O)[C@@H](C)/C=C(\C)[C@H](OC(N)=O)[C@@H](OC)/C=C\C=C(/C)C(=O)NC(=CC1=O)C2=O [Tanespimycin  (17-AAG)] (drug 10000 nM) | 74.3 | 43.6 | 31 | 45.4 | 48.8 | 74.9 | 70 | 51.1 | 35.7 | 43.5 | 45.8 | 55.6 | 43.3 | 52.1 | 81.8 |
| Cn1nnc2c(C(N)=O)ncn2c1=O [Temozolomide] (drug 10000 nM) | -6.27 | 1.44 | 11.9 | -5.2 | 0.839 | 19.9 | -13.8 | -0.417 | 1.07 | -13 | 6.09 | 0.803 | 1.13 | -5.95 | 22.9 |
| CO[C@H]1C[C@@H]2CC[C@@H](C)[C@@](O)(O2)C(=O)C(=O)N2CCCC[C@H]2C(=O)O[C@H]([C@H](C)C[C@@H]2CC[C@@H](OC(=O)C(C)(CO)CO)[C@H](OC)C2)CC(=O)[C@H](C)/C=C(\C)[C@@H](O)[C@@H](OC)C(=O)[C@H](C)C[C@H](C)/C=C/C=C/C=C/1C [Temsirolimus] (drug 100 nM) | 14.5 | 31.8 | 33.7 | 28.7 | 36.2 | 20.6 | 40.1 | 35.9 | 10.6 | 24 | 30.5 | 26.7 | 13.2 | 8.72 | 3.21 |
| COc1cc([C@@H]2c3cc4c(cc3[C@@H](O[C@@H]3O[C@@H]5CO[C@@H](c6cccs6)O[C@H]5[C@H](O)[C@H]3O)[C@H]3COC(=O)[C@H]23)OCO4)cc(OC)c1O [Teniposide] (drug 10000 nM) | 13.2 | 78.3 | 43.9 | 35.7 | 42.4 | 62.6 | 55.1 | 28 | 18 | 46.3 | 37 | 54.1 | 36.5 | 54.2 | 87.3 |
| O=C1CCC(N2C(=O)c3ccccc3C2=O)C(=O)N1 (stereo not given) [Thalidomide] (drug 10000 nM) | 1.4 | 0.973 | 5.91 | 12 | -1.28 | 2.81 | 1.74 | 5.08 | 4.57 | 4.15 | 6.53 | 0.793 | 10.3 | 2.41 | 13.6 |
| S=P(N1CC1)(N1CC1)N1CC1 [Thio-TEPA] (drug 100000 nM) | 9.92 | 3.55 | 4.61 | -3.56 | 4.16 | 11.3 | -13.2 | 9.81 | -0.761 | -1.13 | 11.1 | 2.16 | -2.96 | -3.59 | -5.3 |
| Nc1nc2[nH]cnc2c(=S)[nH]1 [Thioguanine] (drug 10000 nM) | 24 | 50.6 | 43.6 | 32.5 | 32.6 | 28.5 | 55.7 | 46.2 | 28.6 | 41.7 | 37.8 | 36.5 | 23.8 | 11.1 | 20.1 |
| Cn1cncc1[C@@](N)(c1ccc(Cl)cc1)c1ccc2c(c1)c(-c1cccc(Cl)c1)cc(=O)n2C [Tipifarnib  (Zarnestra)] (drug 10000 nM) | 78.5 | 55.8 | 51 | 50.5 | 57.7 | 85.4 | 64.4 | 77.7 | 42 | 44.6 | 57.6 | 28.4 | 14.2 | 42.6 | 77.3 |
| O=C1NC(=O)[C@@H](c2cn3c4c(cccc24)CCC3)[C@@H]1c1c[nH]c2ccccc12 [Tivatinib (ARQ 197)] (drug 1000 nM) | 10.4 | 26.7 | 19.6 | 10.3 | 8.59 | 16.1 | 27.5 | 18.4 | -6.15 | 27.8 | 5.46 | 43.2 | 7.95 | 34.3 | 43.9 |
| COc1cc2nccc(Oc3ccc(NC(=O)Nc4cc(C)on4)c(Cl)c3)c2cc1OC [Tivozanib  (AV-951)] (drug 10000 nM) | 43.4 | 23.7 | 13.6 | 4.79 | 11.2 | 71.8 | 24.5 | 23.7 | 13.2 | 22.1 | 3.78 | 22.3 | 19.7 | 31.9 | 75.6 |
| C[C@@H]1CCN(C(=O)CC#N)C[C@@H]1N(C)c1ncnc2[nH]ccc12 [Tofacitinib (Tasocitinib)] (drug 5000 nM) | -10.5 | -1.37 | -2.74 | -1.91 | 10.5 | -11.1 | -15.3 | 12.9 | 1.13 | -13.3 | 4.16 | 3.16 | -4.5 | 0.0745 | -12.8 |
| CC[C@@]1(O)C(=O)OCc2c1cc1n(c2=O)Cc2cc3c(CN(C)C)c(O)ccc3nc2-1 [Topotecan] (drug 1000 nM) | 0.0411 | 46 | 49.4 | 38.6 | 48.3 | 4.54 | 11 | 23.7 | -1.83 | 27.9 | 40.6 | 52.2 | 5.37 | -20.8 | -23.9 |
| CN(C)CCOc1ccc(/C(=C(/CCCl)c2ccccc2)c2ccccc2)cc1 [Toremifene (citrate)] (drug 10000 nM) | 99.1 | 45.2 | 3.59 | 24.4 | 25.1 | 95.2 | 19.2 | 69.3 | 35.5 | 62 | 18.3 | 9.04 | 1.56 | 25.6 | 82.9 |
| CC(C)C[C@@H](C(=O)N[C@H](C(=O)OC1CCCC1)c1ccccc1)[C@H](O)C(=O)NO [Tosedostat (CHR 2797)] (drug 10000 nM) | 28.5 | 46.1 | 22.3 | 28.8 | 37 | 34.7 | 40.5 | 38.1 | 14.2 | 48.2 | 30 | 33.3 | 15.7 | 19 | 54.7 |
| CC1=C(/C=C/C(C)=C/C=C/C(C)=C/C(=O)O)C(C)(C)CCC1 [Tretinoin] (drug 10000 nM) | 7.81 | 14.5 | 0.707 | -8.55 | 4.01 | -5.43 | -12.3 | 14.5 | 15.9 | 14.5 | 5.21 | 3.78 | 2.8 | -1.01 | -18.6 |
| C1CN1c1nc(N2CC2)nc(N2CC2)n1 [Triethylenemelamine] (drug 10000 nM) | -2.97 | 19.6 | -18.1 | -2.81 | -10 | 7.12 | 1.71 | -13.7 | -10.7 | 13 | -3.65 | -11.6 | -10.3 | -11.5 | -8.95 |
| O=C(CCCCCCC(=O)Nc1ccc([C@H]2O[C@@H](CSc3nc(-c4ccccc4)c(-c4ccccc4)o3)C[C@@H](c3ccc(CO)cc3)O2)cc1)NO [Tubacin] (drug 10000 nM) | 33.8 | 45.1 | 18.1 | 24.4 | 19.2 | 21.5 | 55.1 | 67.2 | 22.1 | 39.4 | 32.9 | 57.8 | 90.2 | 28.3 | 84.7 |
| CN1CCc2c(c3ccccc3n2Cc2ccc(C(=O)NO)cc2)C1 [Tubastatin A] (drug 10000 nM) | 12.3 | 0.672 | 17.4 | 18.8 | 12.3 | 36.4 | 10.2 | 17.2 | 2.15 | 11.4 | 16.1 | 2.46 | 1.6 | 8.77 | 28.9 |
| CN[C@@H]1C[C@H]2O[C@@](C)([C@@H]1OC)n1c3ccccc3c3c4c(c5c6ccccc6n2c5c31)C(=O)N[C@H]4O [UCN-01] (drug 10000 nM) | 96.9 | 78 | 61.4 | 61.5 | 73.2 | 96 | 90.3 | 97.1 | 96 | 70.5 | 66.1 | 67.6 | 69.8 | 74.7 | 90.7 |
| Oc1ncc(N(CCCl)CCCl)c(O)n1 [Uracil mustard] (drug 10000 nM) | 6.63 | -0.922 | 0.272 | -3.68 | 2.56 | 6.37 | -11.6 | 11.6 | -4.85 | 1.54 | 3.73 | -4.46 | -6.35 | -4.25 | -3.71 |
| CCCC(CCC)C(=O)O [Valproic acid] (drug 10000 nM) | -2.85 | 1.44 | -14.3 | 1.2 | -3.03 | 4.24 | -31.2 | -5.39 | 1.78 | 24.2 | 3.1 | -15.5 | 12.5 | -9.64 | -2.48 |
| CCCCC(=O)OCC(=O)[C@]1(O)Cc2c(O)c3c(c(O)c2[C@@H](O[C@H]2C[C@H](NC(=O)C(F)(F)F)[C@H](O)[C@H](C)O2)C1)C(=O)c1c(OC)cccc1C3=O [Valrubicin] (drug 10000 nM) | 59.5 | 67.9 | 59.8 | 58.9 | 85.4 | 75.8 | 55 | 77 | 30.4 | 63.2 | 70.3 | 58.2 | 68.2 | 42.6 | 77.1 |
| COc1cc2/c(=N/c3ccc(Br)cc3F)nc[nH]c2cc1OCC1CCN(C)CC1 [Vandetanib  (ZD6474, Zactima)] (drug 1000 nM) | 15 | 11.5 | -14.7 | -3 | 0.544 | 22 | 15.2 | 11.9 | -0.506 | 20.8 | 4.94 | -1.36 | -3.82 | 2.03 | 5.94 |
| CCc1c(C(=O)C(N)=O)c2c(OCC(=O)O)cccc2n1Cc1ccccc1 [Varespladib] (drug 10000 nM) | -5.77 | -7.33 | -0.701 | -2.07 | -6.3 | -12.8 | 13.3 | -9.89 | -3.81 | -7.24 | -2.44 | -1.77 | -10.9 | 0.192 | -17.3 |
| Clc1ccc(Nc2nnc(Cc3ccncc3)c3ccccc23)cc1 [Vatalanib] (drug 10000 nM) | 10.3 | 26.3 | -6.3 | -2.47 | 6.59 | 10.7 | -22.9 | 8.24 | -1.69 | 7.23 | -0.807 | -9.2 | -8.84 | -9.23 | 0.775 |
